Measured values: patent US20220074923A1, “METHODS OF IDENTIFYING PARKIN-MEDIATED MITOPHAGY ACTIVATING AGENTS” (THE GOVERNING COUNCIL OF THE UNIVERSITY OF TORONTO, priority 2018, published 2022)
Like-named read-outs stand apart in the source and are kept apart here.

Assays:
Drosophila = format: in vivo
Protocol: Fresh vials containing standard fly food supplemented with the indicated treatments were changed out every 2 days. The number of flies surviving each day was counted and log-rank tests were performed to determine statistical significance. 20 flies per treatment, n=5 (c) The climbing ability of flies treated as described in (a and bin) was assessed 4 days following initial administration of treatments. The number of flies to climb beyond 9.5 cm every 10 seconds was assessed. The percentage of flies in each treatment to cross this line was determined. The climbing ability of each treatment was normalized to the control group treated with water only. 20 flies per treatment, n=5. (d) The climbing ability of UAS-park^RNAi and ddc-GAL4>UAS-park^RNAi flies fed either paraquat or paraquat in combination with SR3677. 20 flies per treatment, n=7. (e) Proteins lysates from UAS-park^RNAi or tubulin>UAS-park^RNAi whole flies were separated by SDS-PAGE. Immunoblotting with anti-Parkin and anti-actin antibody was performed. (f) The climbing ability of TH-GAL flies fed either paraquat or paraquat in combination with SR3677. (g) Survival of heteroplasmic mt:Coll^T300l flies fed fly food supplemented with water or 2 mM SR3677 and wild-type Canton(S) flies (n=3 independent experiments). (h) The climbing ability of heteroplasmic mt:Coll^T300l flies fed either water or 2 mM SR3677 for 7 days. Log-rank tests were performed to determine p-values for survival analyses (a, b, g), *P<0.05. P-values were determined by one-tailed paired student's t-test for all climbing assays (c-e, h), *P<0.05. Data is expressed as mean±s.e.m. All error bars represent s.e.m
Male Canton(S) Drosophila were aged 7 days prior to feeding with standard fly food supplemented with water, 10 mM paraquat, 1 mM SR3677, or with combinations of these chemicals. Flies were placed into new vials containing fresh food supplemented with the treatments previously administered and 2 days later, climbing assays were performed. Flies were placed into plastic cylinder vials and tapped down, so all flies fell to the bottom. The number of flies to climb beyond 12.5 cm was counted every 10 s and values are represented as the percentage of total flies in each treatment group.

HEK293 GFP Parkin cells = test: Parkin recruitment assay; format: cell-based
Protocol: HEK293 GFP Parkin cells were seeded into 12-well plates containing coverslips. Cells were treated with small molecules for 2 hours prior to mitophagy induction with 10 μM CCCP, unless indicated otherwise. Following fixation with 4% PFA, immunostaining was carried out using anti-ATP5A primary antibody and anti-mouse Alex Fluor 568.
To measure the percentage of cells with Parkin localized to mitochondria a 2 step process was employed: (1) whole cell segmentation based on GFP Parkin using CellProfiler software and (2) classification into Parkin distribution subpopulation using CellProfiler Analyst. The percentage of cells with Parkin localized to mitochondria was determined in each image. Images were taken at 20× magnification for this experiment, resulting in the classification of at least 300 cells in each treatment group per trial.

[1] = tested on: heteroplasmic mt:Col^T300l flies; test: Survival and climbing of heteroplasmic mt:CoI T300I flies; format: in vivo, Drosophila
Protocol: Finally, SR3677 in an alternate, genetic model of mitochondrial dysfunction was tested. Specifically, flies with a temperature-sensitive, de-stabilizing mutation in cytochrome c oxidase subunit I (mt:Col^T300l) were used. This mutation causes depolarization of the mitochondrial membrane potential and increased mitochondrial reactive oxygen species^44, manifesting in systemic consequences such as impaired climbing and survival. Flies with this mutation in 100% of their mitochondrial genomes, or homoplasmic flies, only survive 4 days post-eclosion. In order to extend our therapeutic window, SR3677 in heteroplasmic flies which contain this temperature-sensitive mutation in approximately 90% of their mtDNA instead^47 was tested. These flies retain the same phenotypes as homoplasmic flies, including reduced survival and climbing ability although to a less severe extent (FIG. 7).
Immediately following eclosion, male heteroplasmic mt:Col^T300l flies were transferred to vials containing either water, 1 or 2 mM SR3677. Newly eclosed Canton(S) male flies were placed into fresh vials and referenced as a control for these experiments and flies were raised at non-permissive 29° C. for these experiments. […]

[2] = tested on: HeLa cells stably expressing GFP parkin and mito-DsRed; test: Mitochondrial clearance assay; format: cell-based
Protocol: HeLa cells stably expressing GFP parkin and mito-DsRed were seeded into 12-well plates containing coverslips and allowed to adhere overnight. Cells were then treated with DMSO or 0.5 μM SR3677 for 2 hours prior to addition of 10 μM CCCP for 24 hours. Cells were then washed with PBS, fixed with 4% PFA and washed with PBS again prior to the mounting of coverslips onto glass slides. Mitochondrial clearance was quantified by counting the number of cells in each treatment to retain mito-DsRed signal. 3 independent trials were performed with at least 50 cells quantified per trial.

ROCK2 = ROCK2 (Homo sapiens, UniProt O75116); conditions: biochemical and cell-based assays, previous studies; cited from earlier work
Chain of ROCK2 (O75116 whole entry): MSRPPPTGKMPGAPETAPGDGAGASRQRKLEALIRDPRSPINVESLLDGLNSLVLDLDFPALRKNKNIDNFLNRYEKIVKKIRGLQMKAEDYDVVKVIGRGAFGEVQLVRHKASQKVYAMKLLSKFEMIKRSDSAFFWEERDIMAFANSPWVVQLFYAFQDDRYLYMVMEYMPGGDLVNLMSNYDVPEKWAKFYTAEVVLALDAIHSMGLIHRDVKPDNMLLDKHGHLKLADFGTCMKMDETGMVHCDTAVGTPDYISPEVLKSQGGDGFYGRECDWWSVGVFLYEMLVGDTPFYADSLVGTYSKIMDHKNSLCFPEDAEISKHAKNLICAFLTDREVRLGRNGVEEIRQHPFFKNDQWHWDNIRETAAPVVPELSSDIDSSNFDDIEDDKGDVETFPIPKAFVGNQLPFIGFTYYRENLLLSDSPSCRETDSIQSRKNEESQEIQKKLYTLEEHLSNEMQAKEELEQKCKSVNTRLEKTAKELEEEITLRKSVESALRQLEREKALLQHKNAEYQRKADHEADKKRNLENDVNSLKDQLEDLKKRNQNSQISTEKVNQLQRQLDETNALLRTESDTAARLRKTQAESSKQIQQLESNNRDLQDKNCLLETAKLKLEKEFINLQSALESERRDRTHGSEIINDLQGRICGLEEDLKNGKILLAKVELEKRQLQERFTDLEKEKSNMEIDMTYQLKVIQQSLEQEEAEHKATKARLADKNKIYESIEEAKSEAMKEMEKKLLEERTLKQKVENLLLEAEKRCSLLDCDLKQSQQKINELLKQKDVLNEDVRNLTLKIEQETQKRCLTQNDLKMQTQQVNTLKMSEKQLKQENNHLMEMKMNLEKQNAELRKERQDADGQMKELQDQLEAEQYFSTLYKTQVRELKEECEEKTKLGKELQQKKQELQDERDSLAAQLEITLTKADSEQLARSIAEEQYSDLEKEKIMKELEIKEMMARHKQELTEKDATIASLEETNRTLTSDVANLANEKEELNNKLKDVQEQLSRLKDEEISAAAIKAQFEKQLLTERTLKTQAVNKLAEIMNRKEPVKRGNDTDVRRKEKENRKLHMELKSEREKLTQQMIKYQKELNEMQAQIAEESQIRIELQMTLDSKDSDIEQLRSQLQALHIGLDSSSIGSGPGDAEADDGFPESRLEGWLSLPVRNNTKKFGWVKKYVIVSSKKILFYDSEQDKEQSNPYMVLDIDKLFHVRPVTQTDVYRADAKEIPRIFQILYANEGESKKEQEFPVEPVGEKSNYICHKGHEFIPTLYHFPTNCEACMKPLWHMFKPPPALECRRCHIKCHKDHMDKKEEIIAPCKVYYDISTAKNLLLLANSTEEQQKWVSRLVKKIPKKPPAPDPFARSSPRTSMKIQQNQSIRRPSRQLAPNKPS

S2R+ cells = test: mitoSOX mitochondrial superoxide staining; format: cell-based; conditions: co-treatment with paraquat
Protocol: A) Staining was performed with mitoSOX Red Mitochondrial Superoxide dye. B) Quantification of the fluorescence intensity of the mitoSOX probe in the indicated treatments (n=3). Data is presented as mean±s.e.m. P-values were determined by paired student's t-test, *P-value<0.05.
Whether SR3677 may protect against paraquat-induced phenotypes by interfering with paraquat's activity was also assessed. Paraquat gives rise to mitochondrial superoxide species that can be detected using mitoSOX, a fluorescent probe that is targeted to mitochondria, where it may be oxidized by superoxides. The oxidized mitoSOX species fluoresces upon encountering nucleic acid. The fluorescence intensity of Schneider's S2-R^+ cells, a cell line derived from dissociated embryos with a flat morphology amenable to imaging, was assessed following treatments with paraquat or paraquat and SR3677.

[3] = in vivo; cited from earlier work

CN(C)CCOc1cc(-c2cn[nH]c2)ccc1NC(=O)[C@@H]1COc2ccccc2O1 [SR3677]
climbing ability of paraquat-treated flies (Drosophila; Canton(S), 1 mM SR3677 with 10 mM paraquat): restores climbing ability
climbing ability with paraquat (Drosophila; TH-GAL4, UAS-rok^RNAi flies): No further improvement to climbing ability
climbing ability with paraquat (Drosophila; UAS-park^RNAi flies): improved
paraquat-induced climbing defects (Drosophila; ddc-GAL4>UAS-park^RNAi flies): no improvement
Parkin recruitment to damaged mitochondria (HEK293 GFP Parkin cells; 0.5 μM, 17 hour and 2 hour pre-incubation, CCCP): increased Parkin recruitment to damaged mitochondria
EC50 (HEK293 GFP Parkin cells; Homo sapiens, HEK293, 2 h pre-treatment, then 10 μM CCCP 1 h, read-out: EC50, percentage of cells with mitochondrial Parkin): 57 nM
Parkin distribution in the absence of CCCP (HEK293 GFP Parkin cells; compound alone): diffuse
concentration at which the maximal effect on Parkin recruitment was achieved (HEK293 GFP Parkin cells; dose series, CCCP): ≤ 0.5 µM
survival ([1]; 1 mM and 2 mM in fly food, 29° C.): equally improved
climbing ability ([1]; 2 mM in fly food, 7 days): improved
mitochondrial mass without CCCP ([2]; 0.5 μM SR3677, 24 hour DMSO treatment): retained mitochondrial mass
% of cells that retained mito-DsRed ([2]; pre-treated with 0.5 μM SR3677, 24 hour 10 μM CCCP): 28±8.21%
ROCK2 inhibition (ROCK2): selectively inhibits ROCK2
paraquat-mediated increase in mitochondrial superoxide levels (S2R+ cells): does prevent the paraquat-mediated increase in mitochondrial superoxide levels
bioavailability [3]: poor bioavailability
